Reference: publication PMC12040169 (PLOS Biology, 2025)

Test: in vitro
Details: human, hela cells, % viability

| SMILES | viability at 28.5 h, 10 µM [%] |
| --- | --- |
| NC(=O)c1c(NC(=O)c2cnn3cccnc23)sc2c1CCCC2 [CBK268437] | 87.8 |
| CN(Cc1nnc(C2CC2)n1C)C1CCN(CCCc2cn[nH]c2)C1 (stereo not shown) [CBK305305] | 85.2 |
| Cc1nc(C2CCCCN2C(=O)C2CCCCC2)ncc1C(=O)NCc1ccc(F)cc1 (stereo not shown) [CBK285554] | 86.5 |
| Cc1noc(C)c1NC(=O)c1ccno1 [CBK200394] | 87 |
| COc1cc(CN2CCC(N3CCCCC3)CC2)c([N+](=O)[O-])cc1OC [CBK261858] | 93.3 |
| O=c1[nH]c(=O)n([C@@H]2O[C@H](CO)[C@H](O)C2O)cc1I (stereo partly shown) [CBK201304] | 94.6 |
| CC(=O)Nc1ccc(Cc2nc(C3CC3)no2)cc1 [CBK305197] | 92.1 |
| COc1ccccc1CCNC(=O)c1ncoc1-c1cccs1 [CBK282394] | 76.4 |
| COc1cc(C2CN=NC23Cc2ccccc2C3=O)cc(OC)c1OC (stereo not shown) [CBK019341] | 90.4 |
| CN(C)CCO/N=C1\CC2(CCCC2)c2ccc(Cl)cc21 [CBK013334] | 78.1 |
| CC(NC(=O)N1CCSCC1)c1cccc(N2CCCC2)c1 (stereo not shown) [CBK305230] | 92 |
| O=C(O)CCN1CCN(Cc2ccc(Cl)cc2)CC1 [CBK287271] | 87.5 |
| Cn1c2c(c(=O)n(C)c1=O)CN(CCN1CCNCC1)CN2 [CBK265218] | 104 |
| CC(C)(C)n1cc2c(n1)[C@H]1CN(C(=O)CN3CCCC3=O)C[C@H]1CC2 [CBK283401] | 89.2 |
| Cc1ccc(-c2nc3ccc(C)cc3c(C(=O)OCC(=O)c3cccc([N+](=O)[O-])c3)c2C)cc1 [CBK264436] | 104 |
| CC(C)(CC(=O)O)CC(=O)N1CCCC1c1nc(-c2ccccc2)c2ccccn12 (stereo not shown) [CBK046399] | 98.8 |
| COC(=O)CC(NC(=O)c1cccc(NC(C)=O)c1)c1cccs1 (stereo not shown) [CBK304537] | 78 |
| Cc1nc2ccc(C(=O)NCCn3ccnc3C)cc2s1 [CBK282477] | 88.1 |
| CC(C)(C)OC(=O)N1CCN(Cc2nnc(Cc3ccccc3)o2)CC1 [CBK306223] | 94.1 |
| Cc1cc(CNCc2c(C(C)C)nn(C)c2N(C)C)no1 [CBK304855] | 97 |
| O=C(NCCCN1CCOCC1)c1cc2cc([N+](=O)[O-])ccc2oc1=O [CBK263441] | 90.9 |
| CC(=O)Nc1ccc(-n2cc(CN3CCC(Sc4ccccn4)CC3)nn2)cc1 [CBK149476] | 99.5 |

| SMILES | viability at 28.5 h, 10 µM [%] |
| --- | --- |
| COc1ccc(CCNC(=O)CC2Sc3ccc(C(F)(F)F)cc3NC2=O)cc1OC (stereo not shown) [CBK265341] | 91.7 |
| COc1ccc([N+](=O)[O-])cc1NC(=O)C1C2CCC(C2=C(C)C)C1C(=O)O (stereo not shown) [CBK263686] | 93.2 |
| COc1cc(Nc2cc(C)nc3ncnn23)ccc1N1CCCC1=O [CBK297725] | 102 |
| Cc1ccc(-c2nnc([C@H]3CCN(C(=O)NCc4ccccc4)C3)o2)cc1 [CBK289411] | 93 |
| COc1ccc(Cl)cc1NC(=O)Cn1nc(-c2ccccc2)ccc1=O [CBK270124] | 85.1 |
| O=C1NCCNC(=O)C2(CCCCOc3ccccc31)CCNCC2 [CBK292074] | 108 |
| CC(NC(=O)Cn1cnc2ccccc21)c1ccccn1 (stereo not shown) [CBK281884] | 96.7 |
| Cc1cc(C)c2cc(CN(CCO)Cc3nnnn3CC3CCCO3)c(=O)[nH]c2c1 (stereo not shown) [CBK108944] | 80 |
| CCOc1ccc2ccccc2c1CNCCSc1nnnn1C [CBK270046C] | 90.6 |
| CC(C)c1ccc(/C=C/C(=O)N2CCN(C3CCN(C)CC3)CC2)cc1 [CBK149094] | 105 |
| COc1ccc(C(=O)C(C)OC(=O)c2ccc3ccccc3n2)cc1 (stereo not shown) [CBK111937] | 99 |
| Cc1c(C(=O)O)sc2ncn(CCCOc3ccc(Cl)cc3)c(=O)c12 [CBK286695] | 106 |
| CCCc1cc(C(=O)N2CCCC(COc3cccc(F)c3)C2)[nH]n1 (stereo not shown) [CBK306776] | 85.3 |
| CN1CCc2c(sc3nc(SCC(=O)c4ccccc4)n(-c4ccccc4)c(=O)c23)C1 [CBK262586] | 85.8 |
| COc1cc(C)nc(NN)n1 [CBK262078] | 108 |
| O=S(=O)(NCCSc1nnnn1-c1ccccc1)c1cccs1 [CBK268013] | 112 |
| Cc1ccc(C2CC(c3cccnc3)Nc3nnnn32)cc1 (stereo not shown) [CBK288067] | 97.9 |
| Cc1nc2c(C(=O)NCCC3OCCO3)cnn2c(C)c1Cc1cccnc1 [CBK162159] | 108 |
| O=C(CCN1CCCCC1)NCC1OCCc2ccccc21 (stereo not shown) [CBK013619] | 97 |
| COC(=O)c1c(-c2ccncc2)csc1NC(=O)Cc1ccc([N+](=O)[O-])cc1 [CBK268119] | 90.1 |
| COc1ccc(C2C(C(=O)c3ccc(Cl)cc3)=C(O)C(=O)N2CCN(C)C)cc1OC (stereo not shown) [CBK264660] | 103 |
| COc1ccc(C)cc1CC(=O)N1CCc2c(sc3ncnc(N)c23)C1 [CBK305878] | 83.4 |

| SMILES | viability at 28.5 h, 10 µM [%] |
| --- | --- |
| CNC(=O)c1ccc(-c2cccc(Cl)c2Cl)nc1N1CCOCC1 [CBK106215] | 109 |
| N#CCCn1cc(C(=O)N2CCOCC2)c(-c2cccs2)n1 [CBK306195] | 110 |
| O=C(/C=C/c1cccc([N+](=O)[O-])c1)NC(=S)Nc1ccc(-c2nc3ncccc3o2)cc1 [CBK264391] | 99.2 |
| NC1=NNC2=C(c3cccc(Cl)c3)NNN12 [CBK093661] | 87.3 |
| O=C(c1cc(F)c(F)cc1F)N1CCC2(CCCN(C/C=C/c3ccccc3)C2)C1 (stereo not shown) [CBK132001] | 107 |
| CC(C)N(C(=O)N1CCC(c2cccnc2)CC1)C(C)C [CBK283850] | 97.6 |
| COc1ccc([N+](=O)[O-])cc1COc1ccc2c(C(F)(F)F)cc(=O)oc2c1 [CBK265173] | 96.4 |
| Cc1noc(C)c1CN1CCN(CC(CC(=O)Nc2ccc(F)cc2)C(=O)O)CC1 (stereo not shown) [CBK286821] | 90.5 |
| COc1ccc(-n2[nH]c(C)c(Cc3c(Cl)cccc3Cl)c2=O)cc1 [CBK084521] | 94.5 |
| Clc1ccc(COc2cc(N3CCCN(Cc4ccccc4-c4ccccc4)CC3)ncn2)cc1Cl [CBK083781T] | 98.4 |
| Cc1ccc(NC2(C#N)C(=O)Nc3ccccc32)cc1C (stereo not shown) [CBK116388] | 114 |
| COc1cccc([C@H]2CN(C(=O)c3ccccc3)[C@@H]3CCN(Cc4ccccc4)C[C@H]23)c1 [CBK285624] | 88.2 |
| Cc1cnn(-c2cc(Oc3ccccc3)ncn2)c1 [CBK287276] | 114 |
| COc1ccc(Br)cc1S(=O)(=O)Nc1ccc(C(=O)O)cc1 [CBK034047] | 106 |
| CCn1cc(CN2CCCN(C(=O)c3cn4ccccc4n3)CC2)cn1 [CBK304784] | 98.3 |
| O=C(Nc1ccc(-c2ccoc2)cc1C(=O)O)OCc1ccc([N+](=O)[O-])cc1 [CBK000141D] | 98.9 |
| CC(Sc1nc2c(N)ncnc2[nH]1)C(=O)O (stereo not shown) [CBK261814] | 106 |
| Cc1cccc(C)c1OCC(=O)Nc1ccc(S(=O)(=O)N2CCOCC2)cc1 [CBK266967] | 94.1 |
| O=S(=O)(c1cccc(C(F)(F)F)c1)N1CCN(Cc2ccc3c(c2)OCO3)CC1 [CBK074594] | 89.8 |
| CC1CCCCN1C(=O)CCn1c(-c2ccncc2)cc2cccnc21 (stereo not shown) [CBK282689] | 105 |
